According to patent US20130158024A1, “TRICYCLIC NECROSTATIN COMPOUNDS” (priority 2005, published 2013):
“Also recorded” adds a separate entry of the source.

Experiments:
[1] = system: Jurkat cells expressing dimerizable FADD; conditions: dimerizer and zVAD.fmk, 48 hours
BALB/c 3T3 cells = experiment: CICD of BALB/c 3T3 cells induced by TNFα/zVAD.fmk; assay type: cell-based, mouse
primary cortical neurons = experiment: Oxygen-glucose deprivation (OGD) induced death of primary cortical neurons, MAP2 cytoblot; assay type: cell-based; conditions: OGD 90 minutes, 24 hours recovery; 30 μM
Procedure: Cells were allowed to recover in the presence of the compounds (except for the CNQX/MK801) for 24 hours, and specific neuronal viability was determined using MAP2 cytoblot. Values represent the percentages of live cells normalized to the compound treated cells, which were maintained in glucose-containing, non-deoxygenated media. **—P<0.02. […] Cells were allowed to recover in the presence of the compounds for 24 hours, and specific neuronal viability was determined using MAP2 cytoblot. Values represent the percentages of live cells normalized to the compound treated cells, which were maintained in glucose-containing, non-deoxygenated media. **—P<0.04.

[2] = system: Primary mouse CD4+ and CD8+ T cells; experiment: Activation-induced cell death (AICD) of primary CD4+ and CD8+ T cells; assay type: cell-based
Procedure: Cell viability was assessed using Sytox Green (Molecular Probes) (CD8) or propidium iodide exclusion (CD4) assays in FIG. 17A or ATP assay in FIG. 17B. Numbers represent the percentages of live cells normalized to the corresponding compound treated controls lacking αCD3.

RAW264.7 cells = experiment: LPS/zVAD.fmk-induced CICD of RAW264.7 macrophage cells, ATP assay; assay type: cell-based, mouse; conditions: 10 ng/ml LPS, 50 or 100 μM zVAD.fmk, 30 μM Nec-1, 24 hours
Procedure: Cell viability was determined 24 hours later using an ATP assay. Values represent the percentages of live cells normalized to the control DMSO-treated cells.

L929 cells = experiment: TNFα-induced CICD of L929 cells, ATP assay; assay type: cell-based, mouse; conditions: no caspase inhibitor
Procedure: Cell viability was determined using ATP-Lite-M ATP assay (Packard). The values represent viability relative to the control lacking TNFα, which was set as 100% viability.
Cell viability in this and subsequent panels was determined by ATP-based viability assay. Numbers represent percentages of the live cells normalized to those in the untreated control wells. Throughout, error bars represent standard deviations. […] Numbers represent viability normalized to that of the corresponding compound-treated cells in the absence of FasL. […] Numbers represent viability normalized to that of the corresponding compound-treated cells in the absence of dimerizer. […] Cells were treated with TNFα (E, F, H), zVAD.fmk (E, F), or CHX (F) for 16 (F) or 24 (E, H) hours. Numbers represent viability normalized to that of the compound-treated cells in the absence of TNFα.

B cell = B cell activation (LPS/IL-4) of splenocytes suppressed by zVAD.fmk, FACS; assay type: cell-based, mouse; conditions: 100 μM zVAD.fmk, 30 μM compound, 72 hours
Procedure: Cells were stained with αB220-FITC antibody (Pharmingen), and B cell numbers were determined by FACS. Cell numbers are normalized to the number of cells in unstimulated control, which was set as 100%.

[3] = system: FADD deficient Jurkat cells
RIP2 = target: T1, RIP2 (Homo sapiens, UniProt O43353); experiment: In vitro kinase assay: autophosphorylation of RIP2; assay type: biochemical; conditions: RIP2-Myc from transfected 293T cells
T1 construct: expressed in transfected cells; host or cells: 293T
T1 sequence (O43353 whole entry, species assumed): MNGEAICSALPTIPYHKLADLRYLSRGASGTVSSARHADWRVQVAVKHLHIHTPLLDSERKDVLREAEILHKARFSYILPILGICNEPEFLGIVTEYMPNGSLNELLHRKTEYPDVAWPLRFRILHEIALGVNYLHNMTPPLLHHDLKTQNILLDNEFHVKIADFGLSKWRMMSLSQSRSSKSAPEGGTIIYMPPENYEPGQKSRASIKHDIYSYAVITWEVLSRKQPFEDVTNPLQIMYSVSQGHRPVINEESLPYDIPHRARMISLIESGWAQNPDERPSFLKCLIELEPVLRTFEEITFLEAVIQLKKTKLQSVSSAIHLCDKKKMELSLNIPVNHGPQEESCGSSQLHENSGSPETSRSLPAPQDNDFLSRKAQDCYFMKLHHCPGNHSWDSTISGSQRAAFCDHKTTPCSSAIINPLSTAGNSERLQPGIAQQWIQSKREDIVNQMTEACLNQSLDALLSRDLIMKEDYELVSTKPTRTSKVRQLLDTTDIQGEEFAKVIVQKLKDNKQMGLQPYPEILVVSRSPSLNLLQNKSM
Description: 293T cells were transfected with RIP-FLAG or RIP2-Myc vectors. […] Major bands corresponding to phosphorylated RIP, RIP2, asterisks, and IgG are shown.

CD8+ cells = experiment: Activation and proliferation of CD8+ cytotoxic T lymphocytes (CTL) suppressed by zVAD.fmk; assay type: cell-based, mouse; conditions: 100 μM zVAD.fmk, 30 μM compound
Procedure: Numbers of cells were determined using FACS analyses. Cell numbers are normalized to the number of cells in unstimulated control, which was set as 100%. […] Cells were stained with αCD8^+-FITC antibody (Pharmingen) and CD8^+ cell numbers were determined by FACS. Cell numbers are normalized to the number of cells in unstimulated control, which was set as 100%. Percentages of dead cells (line) was determined by co-staining cells with propidium iodide.
Values represent fold increase over unstimulated control.
Cells were stained with αCD8^+-FITC antibody (Pharmingen), and CD8^+ cell numbers were determined by FACS. Cell numbers are normalized to the number of cells in unstimulated control, which was set as 100%. Percentages of dead cells (line) were determined by co-staining cells with propidium iodide.

Rat hippocampal neurons = experiment: Amyloid-beta toxicity in rat hippocampal neurons, ATP assay; assay type: cell-based; conditions: Aβ25-35, 48 or 72 hours
Procedure: Viability was determined using an ATP assay. Similar results were also obtained using Aβ1-42.

**Q.** Which results are given for methylthiohydantoin-tryptophane [Nec-1]?
**A.** inhibition of necrotic death, in words [1]: inhibited all published examples of necrotic cell death induced by DR activation in the presence of caspase inhibitors; inhibition of CICD in 3T3 cells, in words (BALB/c 3T3 cells): inhibited all published examples of necrotic cell death induced by DR activation in the presence of caspase inhibitors; protection from OGD-induced neuronal death, in words (primary cortical neurons): protects primary cortical neurons from oxygen-glucose deprivation induced cell death; also recorded: attenuated OGD-induced death of cortical neurons; effect on AICD together with zVAD.fmk, in words ([2]; 100 μM zVAD.fmk and 30 μM Nec-1, 48 hours): inhibition of AICD by Nec-1; also recorded: together efficiently abrogated cell death; effect on AICD, compound alone, in words ([2]; re-activated CD4+ cells): displayed very little effect on the viability of re-activated T cells in the absence of zVAD.fmk; protection from LPS/zVAD.fmk toxicity, in words (RAW264.7 cells): protects from CICD induced by LPS in macrophage cells; also recorded: efficiently inhibited LPS-mediated sensitization of RAW264.7 cells to dose-dependent toxicity of zVAD.fmk; protection of L929 cells from TNFα-induced CICD, in words (L929 cells): protects L929 cells from CICD; also recorded: unlike Nec-1; also recorded: efficiently inhibited the TNFα-induced necrotic death of L929 cells; B cell activation in the presence of zVAD.fmk, in words (B cell): promotes B cell activation; also recorded: attenuated suppression of B cell activation by zVAD.fmk; non-specific cytotoxicity, in words ([3]; 24 hours, ATP assay): does not induce non-specific cytotoxicity in FADD-deficient Jurkat cells; LD50 ([3]; compound in the absence of TNFα): 374 µM; effect on RIP2 autophosphorylation, in words (RIP2): lack of a Nec-1 effect on RIP2 autophosphorylation; also recorded: had no effect on RIP2 autophosphorylation; restoration of CTL activation/proliferation suppressed by zVAD.fmk, in words (CD8+ cells): restores normal activation of CTLs inhibited by caspase inhibition; also recorded: restoration of CTL proliferation by Nec-1; also recorded: completely suppressed by Nec-1; also recorded: suppression of cell proliferation was prevented in the presence of Nec-1; attenuation of amyloid-beta toxicity in hippocampal neurons, in words (Rat hippocampal neurons): protection by Nec-1 from amyloid-beta toxicity; also recorded: attenuation of the aggregated amyloid-beta peptide (Aβ) toxicity in primary rat hippocampal neurons
